Consider one substance from PMC5908784, “Extracellular loops 2 and 3 of the calcitonin receptor selectively modify agonist binding and efficacy” (Biochemical Pharmacology, 2018).

Experiment in all cases: Homologous whole cell competition binding
Conditions in all cases: homologous competition of 125I-sCT(8-32), whole cells, mean ± S.E.M., SEM

Assay [1] deals with T1, hCTR L298A (Homo sapiens, UniProt P30988, L298A).
T1 construct: c-Myc (N); expressed in transfected cells
T1 sequence (P30988 25-474 L298A): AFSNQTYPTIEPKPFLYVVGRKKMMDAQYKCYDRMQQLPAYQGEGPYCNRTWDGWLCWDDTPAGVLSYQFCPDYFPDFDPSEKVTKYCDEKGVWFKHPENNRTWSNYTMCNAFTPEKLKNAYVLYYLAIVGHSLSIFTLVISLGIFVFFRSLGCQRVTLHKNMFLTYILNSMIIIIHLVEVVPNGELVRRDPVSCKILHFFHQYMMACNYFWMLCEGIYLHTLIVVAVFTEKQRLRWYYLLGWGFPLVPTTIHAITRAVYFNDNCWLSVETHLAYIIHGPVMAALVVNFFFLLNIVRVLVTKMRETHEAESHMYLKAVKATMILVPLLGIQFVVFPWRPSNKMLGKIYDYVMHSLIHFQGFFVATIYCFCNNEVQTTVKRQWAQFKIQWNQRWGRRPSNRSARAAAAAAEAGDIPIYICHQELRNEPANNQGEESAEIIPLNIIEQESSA
The method, boiled down:
(§1)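 Whole cells expressing the mutant receptor were incubated overnight at 4 °C with ^125I-sCT(8-32) (25–100 pM, two concentrations) and serial dilutions of unlabelled sCT(8-32). Bound radioactivity was gamma-counted; nonspecific binding was defined with 1 μM sCT(8-32). IC50 was fitted by 3-parameter logistic and Cheng-Prusoff-corrected to pKi.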

For assay [2], the target named is T2, hCTR P363A (Homo sapiens, UniProt P30988, P363A).
T2 construct: expressed in transfected cells
T2 sequence (P30988 25-474 P363A): T1 sequence (P30988 25-474 L298A) with A274L, P339A
The method, boiled down: as §1

Assay [3] concerns the target T3, hCTR R281A (Homo sapiens, UniProt P30988, R281A).
T3 construct: expressed in transfected cells
T3 sequence (P30988 25-474 R281A): T1 sequence (P30988 25-474 L298A) with R257A, A274L
The method, boiled down: as §1

In assay [4] the target is T4, hCTR P360A (Homo sapiens, UniProt P30988, P360A).
T4 construct: expressed in transfected cells
T4 sequence (P30988 25-474 P360A): T1 sequence (P30988 25-474 L298A) with A274L, P336A
The method, boiled down: as §1

Changes are numbered by the printed parent chain. Where no end group is shown, it is not given here.

In the case of “VLGKLSQELHKLQTYPRTNTGSGTP-NH2 [sCT(8-32)]”, the Ki in assay [1] was 0.148 nM; in assay [2] it was 0.355 nM; in assay [3], 0.851 nM; in assay [4], 0.603 nM.

For orientation: Ki means the equilibrium dissociation constant of an inhibitor or competing ligand from its target. A lower Ki goes with higher affinity.
